In paper PMC10569036:

Tests used:
[1] = shake flask on a mixture of 185; loss from the water phase only; LC-Orbitrap peak areas; conditions: room
[2] = shake flask on a mixture of 185; loss from the water phase only; LC-QTOF peak areas; conditions: room

SMILES | log partition 1-octanol / HPLC water, unbuffered, traces of methanol / DMSO [1] [log10] | log partition butyl acetate / HPLC water, unbuffered, traces of methanol / DMSO [1] [log10] | log partition chloroform / HPLC water, unbuffered, traces of methanol / DMSO [1] [log10] | log partition cyclohexane / HPLC water, unbuffered, traces of methanol / DMSO [1] [log10] | log partition dichloromethane / HPLC water, unbuffered, traces of methanol / DMSO [1] [log10] | log partition n-hexane / HPLC water, unbuffered, traces of methanol / DMSO [1] [log10] | log partition n-octane / HPLC water, unbuffered, traces of methanol / DMSO [1] [log10] | log partition n-undecane / HPLC water, unbuffered, traces of methanol / DMSO [1] [log10] | log partition oleylalcohol / HPLC water, unbuffered, traces of methanol / DMSO [1] [log10] | log partition toluene / HPLC water, unbuffered, traces of methanol / DMSO [1] [log10] | log partition 1-octanol / HPLC water, unbuffered, traces of methanol / DMSO [2] [log10] | log partition butyl acetate / HPLC water, unbuffered, traces of methanol / DMSO [2] [log10] | log partition chloroform / HPLC water, unbuffered, traces of methanol / DMSO [2] [log10] | log partition cyclohexane / HPLC water, unbuffered, traces of methanol / DMSO [2] [log10] | log partition dichloromethane / HPLC water, unbuffered, traces of methanol / DMSO [2] [log10] | log partition n-hexane / HPLC water, unbuffered, traces of methanol / DMSO [2] [log10] | log partition n-octane / HPLC water, unbuffered, traces of methanol / DMSO [2] [log10] | log partition n-undecane / HPLC water, unbuffered, traces of methanol / DMSO [2] [log10] | log partition oleylalcohol / HPLC water, unbuffered, traces of methanol / DMSO [2] [log10] | log partition toluene / HPLC water, unbuffered, traces of methanol / DMSO [2] [log10]
Cc1cc2c3c(c1)C(c1ccccc1)=N[C@@H](NC(=O)c1ccncc1)C(=O)N3CC2 | 1.331 | 2.844 | 1.438 | 0.6947 | 2.402 | -0.4559 | 0.088 | 0.07291 | 1.282 | 1.875 | 2.552 | 2.569 | 2.171 | 0.1916 | 2.144 | -0.2402 | -0.1186 | -0.161 | 2.273 | 2.127
O=C(Nc1ccccc1-c1ccc(Cl)cc1)c1cccnc1Cl | 3.752 | 4.674 | 1.201 | 2.491 | 2.846 | 1.664 | 1.841 | 2.234 | 3.336 | 3.533 | 2.544 | 2.85 | 2.789 | 1.857 | 2.321 | 1.024 | 1.335 | 1.129 | 1.78 | 2.524
NC(=O)Nc1ccc(Cl)cc1 | 0.591 | 0.6709 | -0.4936 | – | -0.3897 | – | – | – | 0.6552 | -1.194 | 1.214 | 0.7995 | -0.1363 | – | -0.2421 | – | – | – | 1.051 | -0.9053
Nc1cc2c3c(c1)C(c1ccccc1)=N[C@@H](NC(=O)c1cccnc1)C(=O)N3CC2 | 1.8 | 1.849 | 1.811 | -0.6201 | 1.949 | -0.5688 | -0.5885 | -0.7259 | 1.341 | 0.4674 | 1.4 | 1.224 | 1.953 | -0.8456 | 2.001 | -0.527 | -1.018 | -1.615 | 1.111 | 0.4515
CN/C(=N/[N+](=O)[O-])NCC1CCOC1 (stereo not drawn) | 0.006708 | 0.08365 | 0.01252 | -0.8947 | 0.2723 | -0.6643 | -1.349 | -1.639 | -0.3931 | -0.3042 | -0.7277 | -1.391 | -0.45 | -1.158 | -0.07832 | -1.181 | -1.698 | -1.902 | -1.007 | -1.236
Cn1cnc([N+](=O)[O-])c1Sc1ncnc2nc[nH]c12 | 0.3085 | 0.621 | 0.1897 | -1.394 | 0.2139 | -1.636 | -1.543 | -1.518 | 0.1703 | -0.3549 | 0.004535 | -0.2382 | -0.4745 | -1.86 | -0.366 | -1.66 | -2.343 | -2.232 | -0.3513 | -1.048
CO/C=C(/C(=O)OC)c1ccccc1Oc1cc(Oc2ccccc2C#N)ncn1 | – | – | – | – | – | – | – | – | – | – | 2.62 | 3.136 | 2.817 | 1.291 | 2.944 | 0.8262 | 0.8047 | 0.5559 | 2.323 | 2.329
Oc1c(Cl)cc(Cl)cc1Sc1cc(Cl)cc(Cl)c1O | – | – | – | – | – | – | – | – | – | – | 0.7477 | 1.778 | 1.227 | 1.174 | 1.541 | 1.101 | 1.178 | 0.844 | 1.386 | 1.7
